Reference: the Kinase Knowledgebase extract (Sharma et al. 2016)

Each compound was assayed against PIK3CD (Human) (UniProt O00329) (assay: Enzyme Assay).
Sequence of PIK3CD (Human) (O00329 whole entry, looked up): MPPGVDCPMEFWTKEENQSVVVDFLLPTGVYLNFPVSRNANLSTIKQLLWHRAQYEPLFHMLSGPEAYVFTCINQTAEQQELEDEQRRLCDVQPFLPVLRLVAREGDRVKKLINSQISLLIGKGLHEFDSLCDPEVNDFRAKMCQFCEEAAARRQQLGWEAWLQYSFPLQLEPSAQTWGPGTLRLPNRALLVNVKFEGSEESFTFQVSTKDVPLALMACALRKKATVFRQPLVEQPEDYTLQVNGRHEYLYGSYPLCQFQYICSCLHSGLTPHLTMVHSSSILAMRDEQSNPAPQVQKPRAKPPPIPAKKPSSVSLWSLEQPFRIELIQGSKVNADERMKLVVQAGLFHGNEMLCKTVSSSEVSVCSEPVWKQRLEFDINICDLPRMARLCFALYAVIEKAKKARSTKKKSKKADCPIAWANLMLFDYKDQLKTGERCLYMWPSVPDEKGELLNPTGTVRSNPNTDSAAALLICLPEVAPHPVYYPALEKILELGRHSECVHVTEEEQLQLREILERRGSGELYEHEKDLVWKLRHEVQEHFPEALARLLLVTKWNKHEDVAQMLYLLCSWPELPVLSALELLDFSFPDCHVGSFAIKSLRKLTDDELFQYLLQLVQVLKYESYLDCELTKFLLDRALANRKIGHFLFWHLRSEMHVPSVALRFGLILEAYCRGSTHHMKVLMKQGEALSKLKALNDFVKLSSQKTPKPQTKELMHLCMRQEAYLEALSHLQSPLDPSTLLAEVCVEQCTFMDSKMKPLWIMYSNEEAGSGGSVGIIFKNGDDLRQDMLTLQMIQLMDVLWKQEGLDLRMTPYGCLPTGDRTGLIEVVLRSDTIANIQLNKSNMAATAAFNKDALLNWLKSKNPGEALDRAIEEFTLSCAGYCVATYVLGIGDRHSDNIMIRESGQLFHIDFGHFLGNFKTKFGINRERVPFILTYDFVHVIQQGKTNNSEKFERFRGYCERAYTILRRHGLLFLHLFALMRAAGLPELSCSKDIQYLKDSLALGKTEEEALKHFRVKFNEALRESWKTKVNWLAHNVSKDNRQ

Structure (SMILES)	IC50
CCn1ncc(-c2nc3c(O[C@H]4CCN(c5ncnc6sc(C)cc56)C4)ncnc3n2C)c1C	5.2 nM
CCn1ncc(-c2nc3c(S(=O)(=O)[C@H]4CCN(C(=O)C5CCOCC5)C4)ncnc3n2C)c1C	960 nM
Cn1c(-c2ccc(O)cc2)nc2c(O[C@H]3CCN(C(=O)OC(C)(C)C)C3)ncnc21	98 nM
CCn1c(-c2cnc(C)nc2)nc2c(O[C@H]3CCN(C(=O)C4CC(C)C4)C3)ncnc21 (some centres not stated)	1.3 nM
Cn1c(-c2cnc(C(C)(C)C)s2)nc2c(O[C@H]3CCN(C(=O)OC(C)(C)C)C3)ncnc21	6.9 nM
CCn1ncc(-c2nc3c(O[C@H]4CCN(C(=O)c5ccc(N6CCN(C)CC6)cc5)C4)ncnc3n2C)c1C	110 nM
CCC(=O)N1CC[C@H](Oc2ncnc3c2nc(I)n3C)C1	140 nM
CCn1c(-c2cnc(C)nc2)nc2c(O[C@@H]3CN(C(=O)OC(C)(C)C)CC3(F)F)ncnc21.CCn1c(-c2cnc(C)nc2)nc2c(O[C@H]3CN(C(=O)OC(C)(C)C)CC3(F)F)ncnc21	22 nM
CCn1ncc(-c2nc3c(OC4CC(C)N(C(=O)OC(C)(C)C)C4)ncnc3n2C)c1C (configuration not stated)	1300 nM
CCn1c(C(=O)NCC(F)(F)F)nc2c(O[C@H]3CCC(C(=O)N4CC(OC)C4)C3)ncnc21 (some centres not stated)	9.9 nM
CCn1ncc(-c2nc3c(O[C@H]4CCN(C(=O)NC5CCCCC5)C4)ncnc3n2C)c1C	230 nM
CCn1ncc(-c2nc3c(O[C@H]4CCN(C(=O)c5cnoc5C(C)C)C4)ncnc3n2C)c1C	41 nM
CCn1ncc(-c2nc3c(O[C@H]4CCN(C(=O)Oc5ccc(C)cc5)C4)ncnc3n2C)c1C	340 nM
CCn1ncc(-c2nc3c(O[C@H]4CCN(Cc5ccc[nH]5)C4)ncnc3n2C)c1C	440 nM
CCn1c(-c2cnc(C)nc2)nc2c(O[C@H]3CCN(C(=O)C4CC4)[C@@H]3C)ncnc21	2.8 nM
CCn1c(-c2cnc(C)c(F)c2)nc2c(O[C@H]3CCN(C(=O)C4CC4)C3)ncnc21	4.3 nM
CCC(=O)N1CCC(Oc2ncnc3c2nc(-c2cnn(CC)c2C)n3C)CC1	800 nM
Cn1c(-c2ccc3[nH]ncc3c2)nc2c(O[C@H]3CCN(C(=O)OC(C)(C)C)C3)ncnc21	35 nM
CCn1c(-c2cnc(C)nc2)nc2c(O[C@H]3CCN(C(=O)C4CNC4)C3)ncnc21	70 nM
CCn1ncc(-c2nc3c(O[C@H]4CCN(C(=O)NC(C)C)C4)ncnc3n2C)c1C	9.2 nM
CCn1c(-c2cnc(C)nc2)nc2c(O[C@H]3CCN(C(=O)N4CCC(C)(O)C4)C3)ncnc21 (some centres not stated)	7.3 nM
CCC(=O)N1CC[C@H](S(=O)(=O)c2ncnc3c2nc(-c2cnn(CC)c2C)n3C)C1	210 nM
CCn1c(C(=O)NC2CCCCC2)nc2c(O[C@H]3CCN(C(=O)OC(C)(C)C)C3)ncnc21	72 nM

Structure (SMILES)	IC50
CCn1ncc(-c2nc3c(O[C@@H]4CC[C@H](n5c(=O)[nH]c6ncccc65)C4)ncnc3n2C)c1C	120 nM
CCn1c(-c2cnc(C)nc2)nc2c(OC3CN(Cc4ccccc4)CC3(C)C)ncnc21 (configuration not stated)	28 nM
CCn1c(-c2ccc(OC)nc2)nc2c(O[C@H]3CCN(C(=O)C4CC(F)(F)C4)C3)ncnc21	< 1 nM
CCC(=O)N1CC[C@H](Oc2ncnc3c2nc(-c2ccc(C)nc2)n3C)C1	66 nM
CCn1ncc(-c2nc3c(O[C@H]4CCN(C(=O)Nc5cccc(C)c5)C4)ncnc3n2C)c1C	650 nM
CCn1ncc(-c2nc3c(O[C@H]4CCN(c5cncc(C)n5)C4)ncnc3n2C)c1C	26 nM
CCn1ncc(-c2nc3c(O[C@H]4CCN(C(=O)c5cnn6cc[nH]c56)C4)ncnc3n2C)c1C	270 nM
CCn1ncc(-c2nc3c(O[C@H]4CCNC4)ncnc3n2C)c1C	2100 nM
CCn1c(-c2ccc(OC(F)(F)F)cc2)nc2c(O[C@H]3CCN(C(=O)C4CC4)C3)ncnc21	9.3 nM
CCn1ncc(-c2nc3c(O[C@H]4CCN(C(=O)OCc5ccccc5)C4)ncnc3n2C)c1C	14 nM
CCn1c(-c2ccc(OC(F)F)nc2)nc2c(O[C@H]3CCN(C(=O)OC(C)(C)C)C3)ncnc21	15 nM
CCn1c(-c2cnc(C)nc2)nc2c(O[C@H]3CCN(C(=O)C4[C@@H](C)[C@H]4C)C3)ncnc21 (some centres not stated)	12 nM
CCC(=O)N1CC[C@H](Oc2ncnc3c2nc(C(F)(F)F)n3C)C1	430 nM
CCn1c(N2CCC(C)CC2)nc2c(O[C@H]3CCN(C(=O)OC(C)(C)C)C3)ncnc21	380 nM
CCn1ncc(-c2nc3c(O[C@H]4CCN(C(=O)c5ccno5)C4)ncnc3n2C)c1C	4.7 nM
CCn1ncc(-c2nc3c(O[C@H]4CCN(C(=O)c5cc(C)nn5C)C4)ncnc3n2C)c1C	19 nM
CCn1c(-c2cnc(C)nc2)nc2c(O[C@H]3CCN(C(=O)[C@H]4CCC[C@H]4N)C3)ncnc21	25 nM
CCn1ncc(-c2nc3c(OC4CCC(C(=O)N5CCOCC5)C4)ncnc3n2C)c1C (configuration not stated)	220 nM
CCC(=O)N1CC[C@H](Oc2ncnc3c2nc(-c2cnc(C(C)(C)C)s2)n3CC)C1	2.2 nM
CCn1ncc(-c2nc3c(O[C@H]4CCN(C(C)c5ccccc5)C4)ncnc3n2C)c1C (some centres not stated)	270 nM
CCn1c(-c2cnc(OC)c(F)c2)nc2c(O[C@H]3CCN(C(=O)c4cncn4C)C3)ncnc21	1.5 nM
CCn1ncc(-c2nc3c(O[C@H]4CCN(C(=O)c5nccn5C)C4)ncnc3n2C)c1C	35 nM
CCC(=O)N1CC[C@H](Oc2ncnc3c2nc(C2=CCOCC2)n3CC)C1	93 nM

Structure (SMILES)	IC50
CCn1c(-c2cnc(OC)c(F)c2)nc2c(O[C@H]3CCN(C(=O)C4CCOCC4)C3)ncnc21	< 1 nM
CCn1c(-c2cnc(C)nc2)nc2c(O[C@H]3CCN(c4ccc(F)cc4)C3)ncnc21	18 nM
CCn1ncc(-c2nc3c(OC4CCN(C(=O)C5CCCC5)CC4)ncnc3n2C)c1C	550 nM
CCC(=O)N1CC[C@H](Oc2ncnc3c2nc(-c2cc(F)cc(NS(C)(=O)=O)c2)n3C)C1	10 nM
CCn1c(-c2cnc(C)nc2)nc2c(O[C@H]3CCN(C(=O)[C@H]4CC5CCN4C5)C3)ncnc21 (some centres not stated)	88 nM
Cn1cnc2c(O[C@H]3CCN(C(=O)OC(C)(C)C)C3)ncnc21	1400 nM
Cn1c(-c2cnn3cccnc23)nc2c(O[C@H]3CCN(C(=O)OC(C)(C)C)C3)ncnc21	210 nM
CCC(=O)N1CC[C@H](Oc2ncnc3c2nc(-c2ccc4cn[nH]c4c2)n3C)C1	7.2 nM
CCn1ncc(-c2nc3c(O[C@H]4CCN(C(=O)c5c(C)noc5C)C4)ncnc3n2C)c1C	88 nM
CCn1ncc(-c2nc3c(O[C@H]4CCN(S(=O)(=O)c5ccccc5)C4)ncnc3n2C)c1C	360 nM
CCn1ncc(-c2nc3c(S[C@H]4CCN(c5ncnc6sccc56)C4)ncnc3n2C)c1C	5.5 nM
CCn1c(-c2cnc(C)nc2)nc2c(O[C@H]3CCN(C(=O)c4ccn(C)n4)C3)ncnc21	3 nM
CCNC(=O)N1CC[C@H](Oc2ncnc3c2nc(-c2cnc(C)nc2)n3CC)C1	19 nM
CCC(=O)N1CC[C@H](Oc2ncnc3c2nc(-c2cnc4[nH]nc(C)c4c2)n3C)C1	23 nM
CCn1ncc(-c2nc3c(O[C@H]4CCN(C(=O)c5cn(C)nn5)C4)ncnc3n2C)c1C	5.2 nM
CCn1c(-c2cnc(C)nc2)nc2c(O[C@H]3CCN(C(=O)OCCN(C)C)C3)ncnc21	38 nM
CCn1ncc(-c2nc3c(O[C@H]4CCN(C(=O)C(C)C)C4)ncnc3n2C)c1C	4 nM
CCn1c(-c2cnc(C)nc2)nc2c(O[C@H]3CCN(C(=O)N4CC(O)C4)C3)ncnc21	4.3 nM
CCC(=O)N1CC[C@H](Oc2ncnc3c2nc(-c2cnc(C(C)(C)C)s2)n3C)C1	1.6 nM
CCn1ncc(-c2nc3c(OC4CCN(C(=O)c5cnco5)C4)ncnc3n2C)c1C (configuration not stated)	17 nM
CCn1ncc(-c2nc3c(O[C@H]4CCN(C(=O)c5cccn5C)C4)ncnc3n2C)c1C	8.7 nM
CCC(=O)N1CC[C@H](Oc2ncnc3c2nc(C(F)(F)F)n3CC)C1	99 nM
CCC(=O)N1CC[C@H](Oc2ncnc3c2nc(Oc2cccc(C)c2C)n3C)C1	2400 nM

Structure (SMILES)	IC50
CCn1c(-c2cnc(C(C)(C)C)s2)nc2c(O[C@H]3CCN(C(=O)OC(C)(C)C)C3)ncnc21	0.5 nM
CCn1ncc(-c2nc3c(O[C@H]4CCN(C(=O)C5CCc6nnnn65)C4)ncnc3n2C)c1C (some centres not stated)	23 nM
CCC(=O)N1CC[C@H](Oc2ncnc3c2nc(-c2cnn4c2CCC4)n3C)C1	23 nM
Cn1c(-c2ccc(-n3ccnc3)cc2)nc2c(O[C@H]3CCN(C(=O)OC(C)(C)C)C3)ncnc21	330 nM
CCn1ncc(-c2nc3c(O[C@H]4CCN(C(=O)CC#N)C4)ncnc3n2C)c1C	38 nM
CCC(=O)N1CC[C@H](Oc2ncnc3c2nc(-c2cnc(C)nc2)n3C)C1	36 nM
CCC(=O)N1CC[C@H](Oc2ncnc3c2nc(-c2cnn(-c4ccccc4)c2C)n3C)C1	3.6 nM
CCCn1c(-c2cnn(CC)c2C)nc2c(O[C@H]3CCN(C(=O)CC)C3)ncnc21	58 nM
CCn1ncc(-c2nc3c(O[C@H]4CCN(C(=O)c5ccnn5C(C)C)C4)ncnc3n2C)c1C	23 nM
CCn1c(-c2ccnc(OC)c2)nc2c(O[C@H]3CCN(C(=O)C4CC4)C3)ncnc21	20 nM
CCn1ncc(-c2nc3c(O[C@H]4CCN(C(=O)CN5CCCC5=O)C4)ncnc3n2C)c1C	480 nM
CCNC(=O)c1nc2c(O[C@H]3CCN(C(=O)OC(C)(C)C)C3)ncnc2n1CC	310 nM
CCC(=O)N1CC[C@H](Oc2ncnc3c2nc(Oc2cnc(C)nc2)n3C)C1	380 nM
CCC(=O)N[C@H]1CC[C@H](Oc2ncnc3c2nc(-c2cnc(C)nc2)n3CC)CC1	330 nM
CCn1ncc(-c2nc3c(O[C@H]4CCN(C(=O)c5ccn(C)n5)C4)ncnc3n2C)c1C	2.2 nM
CCn1c(-c2ccc(OC)nc2)nc2c(O[C@H]3CCN(C(=O)C4CC4)C3)ncnc21	1 nM
CCn1c(-c2cnc(C)nc2)nc2c(O[C@H]3CCN(C(=O)OCCCN(C)C)C3)ncnc21	37 nM
CCn1c(-c2cnc(C)nc2)nc2c(O[C@H]3CN(C(=O)C4CC4)C[C@@H]3O)ncnc21	17 nM
CCc1nc(C)c(C(=O)N2CC[C@H](Oc3ncnc4c3nc(-c3cnn(CC)c3C)n4C)C2)o1	12 nM
CCn1ncc(-c2nc3c(O[C@H]4CCN(C(=O)Oc5ccccc5)C4)ncnc3n2C)c1C	90 nM
CCn1ncc(-c2nc3c(O[C@H]4CCN(c5ccccn5)C4)ncnc3n2C)c1C	680 nM
CCn1ncc(-c2nc3c(O[C@H]4CCN(C(=O)c5nonc5C)C4)ncnc3n2C)c1C	26 nM
CCn1c(-c2cnc(OC)c(F)c2)nc2c(O[C@H]3CCN(C(=O)C(C)C)C3)ncnc21	< 1 nM
